Laboratory results from ChEMBL document CHEMBL1123875, “Plant antitumor agents. 25. Total synthesis and antileukemic activity of ring A substituted camptothecin analogues. Structure-activity correlations” (J Med Chem, 1987).
≈ marks a conversion by molar mass, not a printed value. Calls of active or inactive are those of the source. The rule behind the calls is not given here.

Columns and labels:
Mus musculus [1] = test: In vivo antileukemic activity against L-1210 mouse leukemia cells expressed as % T/C (median survival time of treated/control animals) x 100 after 10 mg/kg administration of dose; assay type: functional
[2] = In vitro cytotoxic activity against KB cell culture.; assay type: functional; conditions: Homo sapiens, read-out: ED50 (the source's name)
L1210 [3] = test: Active dose range for antileukemic activity against L1210 mouse leukemia cells was reported; dose range may vary from 10 to 80; assay type: functional
L1210 [4] = test: Toxic dose against L1210 mouse leukemia cells was determined; assay type: toxicity
Mus musculus [5] = test: In vivo antileukemic activity against L-1210 mouse leukemia cells expressed as KE (log10 of initial tumor cell population minus log10 of tumor cell population at end of treatment); assay type: functional
Mus musculus [6] = test: In vivo antileukemic activity against L-1210 mouse leukemia cells given as number of animals cured out of 6; assay type: functional
L1210 [7] = test: In vivo antileukemic activity against L-1210 mouse leukemia cells expressed as % T/C (median survival time of treated/control animals) x 100; In active; assay type: functional, organism-based
KB [8] = test: In vitro cytotoxic activity against KB cell culture, expressed as ED50 (concentration resulting in a 50% cell number reduction) was determined; In active; assay type: functional, cell-based; conditions: Homo sapiens
L1210 [9] = test: Active dose range for antileukemic activity against L1210 mouse leukemia cells was reported; dose range may vary from 10 to 20; assay type: functional
Mus musculus [10] = test: In vivo antileukemic activity against L-1210 mouse leukemia cells expressed as % T/C (median survival time of treated/control animals) x 100 after 15.5 mg/kg administration of dose; assay type: functional
L1210 [11] = test: Active dose range for antileukemic activity against L1210 mouse leukemia cells was reported; dose range may vary from 7.5 to 15.5; assay type: functional
Mus musculus [12] = test: (§1) In vivo antileukemic activity against L-1210 mouse leukemia cells expressed as % T/C (median survival time of treated/control animals) x 100; IA means inactive; assay type: functional, organism-based
Mus musculus [13] = test: In vivo antileukemic activity against L-1210 mouse leukemia cells expressed as % T/C (median survival time of treated/control animals) x 100; assay type: functional
Mus musculus [14] = test: In vivo antileukemic activity against L-1210 mouse leukemia cells and number of animals cured out of 6; assay type: functional
L1210 [15] = test: Active dose range for antileukemic activity against L1210 mouse leukemia cells was reported; assay type: functional
Mus musculus [16] = test: In vivo antileukemic activity against L-1210 mouse leukemia cells expressed as […] (log10 of initial tumor cell population minus log10 of tumor cell population at end of treatment); assay type: functional
L1210 [17] = test: Active dose range for antileukemic activity against L1210 mouse leukemia cells was reported; dose range may vary from 20 to 80; assay type: functional
Mus musculus [18] = test: In vivo antileukemic activity against L-1210 mouse leukemia cells expressed as % T/C (median survival time of treated/control animals) x 100 after 40 mg/kg administration of dose; assay type: functional
Mus musculus [19] = test: In vivo antileukemic activity against L-1210 mouse leukemia cells expressed as % T/C (median survival time of treated/control animals) x 100 after 60 mg/kg administration of dose; assay type: functional
L1210 [20] = test: Active dose range for antileukemic activity against L1210 mouse leukemia cells was reported; dose range may vary from 7.5 to 60; assay type: functional
L1210 [21] = test: Active dose range for antileukemic activity against L1210 mouse leukemia cells was reported; dose range may vary from 0.25 to 5.0; assay type: functional
Mus musculus [22] = test: In vivo antileukemic activity against L-1210 mouse leukemia cells expressed as % T/C (median survival time of treated/control animals) x 100 after 2.5 mg/kg administration of dose; assay type: functional
Mus musculus [23] = test: In vivo antileukemic activity against L-1210 mouse leukemia cells expressed as % T/C (median survival time of treated/control animals) x 100 after 3.75 mg/kg administration of dose; assay type: functional
L1210 [24] = test: Active dose range for antileukemic activity against L1210 mouse leukemia cells was reported; dose range may vary from 2 to 15.5; assay type: functional
KB [25] = test: In vitro cytotoxic activity against KB cell culture, expressed as ED50 (concentration resulting in a 50% cell number reduction) was determined; IA means inactive; assay type: functional, cell-based; conditions: Homo sapiens
Mus musculus [26] = test: as §1; assay type: functional, organism-based; remark: listed apart in the source
Mus musculus [27] = test: In vivo antileukemic activity against L-1210 mouse leukemia cells expressed as % T/C (median survival time of treated/control animals) x 100 after 2 mg/kg administration of dose; assay type: functional
L1210 [28] = test: Active dose range for antileukemic activity against L1210 mouse leukemia cells was reported 2 to 4; assay type: functional
Mus musculus [29] = test: In vivo antileukemic activity against L-1210 mouse leukemia cells expressed as % T/C (median survival time of treated/control animals) x 100 after 80 mg/kg administration of dose; assay type: functional

Structure (SMILES)	EC50 [2] [mg/L]	Toxic dose (L1210 [4]) [mg/kg]	KE (Mus musculus [5]) [log10 units]	No. of cures (Mus musculus [6])	other results
CCC1(O)C(=O)OCc2c1cc1n(c2=O)Cc2cc3cc(C)ccc3nc2-1 (centres undefined)	0.08 (≈ 0.221 µM)	> 80	4.66	0	T/C (Mus musculus [1]): 207%; Active dose range (L1210 [3]): 80 mg/kg
CCC1(O)C(=O)OCc2c1cc1n(c2=O)Cc2cc3ccc(/C=N\N=C(N)N)cc3nc2-1 (racemic)					T/C (L1210 [7]): inactive; ED50 (KB [8]): inactive
CCC1(O)C(=O)OCc2c1cc1n(c2=O)Cc2cc3cc(Cl)ccc3nc2-1 (centres undefined)	0.01 (≈ 0.0261 µM)	40	≥ 5.97	2	T/C (Mus musculus [1]): 280%; Active dose range (L1210 [9]): 20 mg/kg
CCC1(O)C(=O)OCc2c1cc1n(c2=O)Cc2cc3cc([N+](=O)[O-])ccc3nc2-1 (centres undefined)	0.3 (≈ 0.763 µM)	31	≥ 5.86	1	T/C (Mus musculus [10]): 219%; Active dose range (L1210 [11]): 15.5 mg/kg
CCC1(O)C(=O)OCc2c1cc1n(c2=O)Cc2cc3ccc(CO)cc3nc2-1 (centres undefined)	0.3 (≈ 0.793 µM)				T/C (Mus musculus [12]): inactive
Br.CCC1(O)C(=O)OCc2c1cc1n(c2=O)Cc2cc3cc(O)c(O)cc3nc2-1 (centres undefined)	3	> 80			T/C (Mus musculus [13]): 173%; No. of cures (Mus musculus [14]): 0; Active dose range (L1210 [15]): 10 mg/kg; T/C (Mus musculus [16]): 2.62%
CCC1(O)C(=O)OCc2c1cc1n(c2=O)Cc2cc3ccc(C=O)cc3nc2-1 (centres undefined)	5 (≈ 13.3 µM)				T/C (L1210 [7]): inactive
CCC1(O)C(=O)OCc2c1cc1n(c2=O)Cc2cc3ccc(C)cc3nc2-1 (centres undefined)	0.9 (≈ 2.48 µM)	> 80	-0.68	0	Active dose range (L1210 [17]): 80 mg/kg; T/C (Mus musculus [18]): 136%
CCC1(O)C(=O)OCc2c1cc1n(c2=O)Cc2cc3ccc(C(F)(F)F)cc3nc2-1 (centres undefined)	0.9 (≈ 2.16 µM)				T/C (Mus musculus [12]): inactive
CCC1(O)C(=O)OCc2c1cc1n(c2=O)Cc2cc3ccc(N)cc3nc2-1 (centres undefined)	0.02 (≈ 0.055 µM)	> 80	0.29	0	Active dose range (L1210 [3]): 80 mg/kg; T/C (Mus musculus [18]): 147%
CCC1(O)C(=O)OCc2c1cc1n(c2=O)Cc2cc3ccc(C(=O)OC)cc3nc2-1 (centres undefined)	5 (≈ 12.3 µM)				T/C (Mus musculus [12]): inactive
CCC1(O)C(=O)OCc2c1cc1n(c2=O)Cc2cc3ccc(CN)cc3nc2-1.Cl (centres undefined)	4				
CCC1(O)C(=O)OCc2c1cc1n(c2=O)Cc2cc3ccc(CN)cc3nc2-1 (centres undefined) [listing 1 of 2 here]					T/C (Mus musculus [12]): inactive
CCC1(O)C(=O)OCc2c1cc1n(c2=O)Cc2cc3ccc(O)cc3nc2-1 (centres undefined)	0.02 (≈ 0.0549 µM)	> 60	≥ 5.68	3	T/C (Mus musculus [19]): 357%; Active dose range (L1210 [20]): 60 mg/kg
CCC1(O)C(=O)OCc2c1cc1n(c2=O)Cc2cc3cc(O)c(O)cc3nc2-1 (centres undefined)	1 (≈ 2.63 µM)	> 80			T/C (Mus musculus [13]): 153%; No. of cures (Mus musculus [14]): 1; Active dose range (L1210 [15]): 10 mg/kg; T/C (Mus musculus [16]): 0.87%
CC[C@@]1(O)C(=O)OCc2c1cc1n(c2=O)Cc2cc3c(N)cccc3nc2-1 [9-AMINOCAMPTOTHECIN]	0.02 (≈ 0.055 µM)	10	≥ 5.97	4	Active dose range (L1210 [21]): 5 mg/kg; T/C (Mus musculus [22]): 361%
CCC1(O)C(=O)OCc2c1cc1n(c2=O)Cc2cc3cc(N)ccc3nc2-1 (centres undefined)	0.03 (≈ 0.0826 µM)	32	≥ 5.97	3	T/C (Mus musculus [23]): 365%; Active dose range (L1210 [24]): 15.5 mg/kg
CCC1(O)C(=O)OCc2c1cc1n(c2=O)Cc2cc3ccc(C(=O)[O-])cc3nc2-1.[Na+] (centres undefined)	0.3				ED50 (KB [25]): inactive; T/C (Mus musculus [12]): inactive; T/C (Mus musculus [26]): inactive
CCC1(O)C(=O)OCc2c1cc1n(c2=O)Cc2cc3ccc(N(C)C)cc3nc2-1 (centres undefined)					ED50 (KB [25]): inactive; T/C (Mus musculus [12]): inactive
CCC1(O)C(=O)OCc2c1cc1n(c2=O)Cc2cc3cc(OC)c(OC)cc3nc2-1 (centres undefined)	9 (≈ 22 µM)				T/C (Mus musculus [12]): inactive
CCC1(O)C(=O)OCc2c1cc1n(c2=O)Cc2cc3ccc(CN)cc3nc2-1 (centres undefined) [listing 2 of 2 here]	2 (≈ 5.3 µM)				
CCC1(O)C(=O)OCc2c1cc1n(c2=O)Cc2cc3cc4c(cc3nc2-1)OCO4 (centres undefined)	0.007 (≈ 0.0178 µM)	> 8	≥ 5.97	2	T/C (Mus musculus [27]): 325%; Active dose range (L1210 [28]): 4 mg/kg
CCC1(O)C(=O)OCc2c1cc1n(c2=O)Cc2cc3ccc(C#N)cc3nc2-1 (centres undefined)	0.3 (≈ 0.803 µM)	20	≥ 5.79	3	T/C (Mus musculus [1]): 365%; Active dose range (L1210 [9]): <=20 mg kg-1
CCC1(O)C(=O)OCc2c1cc1n(c2=O)Cc2cc3ccc([N+](=O)[O-])cc3nc2-1 (centres undefined)	3 (≈ 7.63 µM)	> 80	0.29	0	T/C (Mus musculus [29]): 147%; Active dose range (L1210 [17]): 80 mg/kg
